Measurements: the supplement of paper PMC8882468

tested on: HCI-001 (organoid from a triple-negative breast cancer xenograft); experiment: CTG-3D luminescence at 96 h relative to day-0 seeding control (ratio to day 0); higher = more growth / less cytotoxicity; PDxO 3D drug screen, 96 h, CTG-3D normalised to day-0 seeding control.; conditions: 10 µM; days in culture: 364

First: C[C@H](NC(=O)CCC(F)(F)F)C(=O)N[C@@H]1C(=O)N(CCO)c2ncccc2-c2ccccc21 [crenigacestat]
Second: CS(=O)(=O)c1ccc(C(=O)Nc2ccc(Cl)c(-c3ccccn3)c2)c(Cl)c1 [vismodegib]
The “CTG-3D luminescence at 96 h” value of the first is lower: 1.27 for the first, 1.71 for the second.

First: Cc1cc(Nc2ncc(Cl)c(Nc3ccccc3S(=O)(=O)C(C)C)n2)c(OC(C)C)cc1C1CCNCC1 [ceritinib]
Second: Cc1cc(Nc2ncnc3ccc(NC4=NC(C)(C)CO4)cc23)ccc1Oc1ccn2ncnc2c1 [tucatinib]
The “CTG-3D luminescence at 96 h” value of the first is lower: 0.315 for the first, 1.28 for the second.

First: NC(=O)c1cccc2cn(-c3ccc([C@@H]4CCCNC4)cc3)nc12 [niraparib]
Second: CCN(c1cc(C#CCN2CCOCC2)cc(C(=O)NCc2c(C)cc(C)[nH]c2=O)c1C)[C@H]1CC[C@H](N(C)CCOC)CC1
The “CTG-3D luminescence at 96 h” value of the first is lower: 1.2 for the first, 1.85 for the second.

same assay, conditions: 100 µM; days in culture: 240

Compared with `NC1(C(=O)N[C@@H](CCO)c2ccc(Cl)cc2)CCN(c2nc[nH]c3nccc2-3)CC1` [capivasertib], `C[C@H](NC(=O)CCC(F)(F)F)C(=O)N[C@@H]1C(=O)N(CCO)c2ncccc2-c2ccccc21` [crenigacestat] is higher in “CTG-3D luminescence at 96 h” value: 0.382 for the first, 1.45 for the second.

Going from `CC(C)n1nc(-c2ccc3oc(N)nc3c2)c2c(N)ncnc21` [sapanisertib] to `Cc1cc(Nc2ncnc3ccc(NC4=NC(C)(C)CO4)cc23)ccc1Oc1ccn2ncnc2c1` [tucatinib], the “CTG-3D luminescence at 96 h” value falls from 0.187 to 0.0264.

Going from `O=C(c1ccc(F)c(F)c1Nc1ccc(I)cc1F)N1CC(O)([C@@H]2CCCCN2)C1` [cobimetinib] to `NC(=O)c1cccc2cn(-c3ccc([C@@H]4CCCNC4)cc3)nc12` [niraparib], the “CTG-3D luminescence at 96 h” value falls from 0.00168 to -0.07.

Going from `Cc1cc(Nc2ncc(Cl)c(Nc3ccccc3S(=O)(=O)C(C)C)n2)c(OC(C)C)cc1C1CCNCC1` [ceritinib] to `CS(=O)(=O)c1ccc(C(=O)Nc2ccc(Cl)c(-c3ccccn3)c2)c(Cl)c1` [vismodegib], the “CTG-3D luminescence at 96 h” value rises from -0.00201 to 0.836.

In the case of `CCN(c1cc(C#CCN2CCOCC2)cc(C(=O)NCc2c(C)cc(C)[nH]c2=O)c1C)[C@H]1CC[C@H](N(C)CCOC)CC1`, the “CTG-3D luminescence at 96 h” value is reported as 1.6.

same assay, conditions: 100 µM; days in culture: 260

Going from `NC1(C(=O)N[C@@H](CCO)c2ccc(Cl)cc2)CCN(c2nc[nH]c3nccc2-3)CC1` [capivasertib] to `C[C@H](NC(=O)CCC(F)(F)F)C(=O)N[C@@H]1C(=O)N(CCO)c2ncccc2-c2ccccc21` [crenigacestat], the “CTG-3D luminescence at 96 h” value rises from 0.449 to 1.12.

First: CC(C)n1nc(-c2ccc3oc(N)nc3c2)c2c(N)ncnc21 [sapanisertib]
Second: Cc1cc(Nc2ncnc3ccc(NC4=NC(C)(C)CO4)cc23)ccc1Oc1ccn2ncnc2c1 [tucatinib]
The “CTG-3D luminescence at 96 h” value of the first is higher: 0.21 for the first, 0.206 for the second.

Compared with `O=C(c1ccc(F)c(F)c1Nc1ccc(I)cc1F)N1CC(O)([C@@H]2CCCCN2)C1` [cobimetinib], `NC(=O)c1cccc2cn(-c3ccc([C@@H]4CCCNC4)cc3)nc12` [niraparib] is lower in “CTG-3D luminescence at 96 h” value: 0.00186 for the first, -0.0335 for the second.

Going from `Cc1cc(Nc2ncc(Cl)c(Nc3ccccc3S(=O)(=O)C(C)C)n2)c(OC(C)C)cc1C1CCNCC1` [ceritinib] to `CS(=O)(=O)c1ccc(C(=O)Nc2ccc(Cl)c(-c3ccccn3)c2)c(Cl)c1` [vismodegib], the “CTG-3D luminescence at 96 h” value rises from -0.00298 to 0.909.

For `CCN(c1cc(C#CCN2CCOCC2)cc(C(=O)NCc2c(C)cc(C)[nH]c2=O)c1C)[C@H]1CC[C@H](N(C)CCOC)CC1`, the “CTG-3D luminescence at 96 h” value was 1.19.

same assay, conditions: 100 µM; days in culture: 269

Compared with `NC1(C(=O)N[C@@H](CCO)c2ccc(Cl)cc2)CCN(c2nc[nH]c3nccc2-3)CC1` [capivasertib], `C[C@H](NC(=O)CCC(F)(F)F)C(=O)N[C@@H]1C(=O)N(CCO)c2ncccc2-c2ccccc21` [crenigacestat] is higher in “CTG-3D luminescence at 96 h” value: 0.593 for the first, 2 for the second.

First: CC(C)n1nc(-c2ccc3oc(N)nc3c2)c2c(N)ncnc21 [sapanisertib]
Second: Cc1cc(Nc2ncnc3ccc(NC4=NC(C)(C)CO4)cc23)ccc1Oc1ccn2ncnc2c1 [tucatinib]
The “CTG-3D luminescence at 96 h” value of the first is higher: 0.22 for the first, 0.0618 for the second.

Compared with `O=C(c1ccc(F)c(F)c1Nc1ccc(I)cc1F)N1CC(O)([C@@H]2CCCCN2)C1` [cobimetinib], `NC(=O)c1cccc2cn(-c3ccc([C@@H]4CCCNC4)cc3)nc12` [niraparib] is higher in “CTG-3D luminescence at 96 h” value: -0.00203 for the first, -0.00141 for the second.

Going from `Cc1cc(Nc2ncc(Cl)c(Nc3ccccc3S(=O)(=O)C(C)C)n2)c(OC(C)C)cc1C1CCNCC1` [ceritinib] to `CS(=O)(=O)c1ccc(C(=O)Nc2ccc(Cl)c(-c3ccccn3)c2)c(Cl)c1` [vismodegib], the “CTG-3D luminescence at 96 h” value rises from -0.0412 to 0.861.

With `CCN(c1cc(C#CCN2CCOCC2)cc(C(=O)NCc2c(C)cc(C)[nH]c2=O)c1C)[C@H]1CC[C@H](N(C)CCOC)CC1` the “CTG-3D luminescence at 96 h” value was 1.29.

same assay, conditions: 100 µM; days in culture: 327

Compared with `NC1(C(=O)N[C@@H](CCO)c2ccc(Cl)cc2)CCN(c2nc[nH]c3nccc2-3)CC1` [capivasertib], `C[C@H](NC(=O)CCC(F)(F)F)C(=O)N[C@@H]1C(=O)N(CCO)c2ncccc2-c2ccccc21` [crenigacestat] is higher in “CTG-3D luminescence at 96 h” value: 0.71 for the first, 1.64 for the second.

Compared with `CC(C)n1nc(-c2ccc3oc(N)nc3c2)c2c(N)ncnc21` [sapanisertib], `Cc1cc(Nc2ncnc3ccc(NC4=NC(C)(C)CO4)cc23)ccc1Oc1ccn2ncnc2c1` [tucatinib] is lower in “CTG-3D luminescence at 96 h” value: 0.111 for the first, 0.0356 for the second.

Compared with `O=C(c1ccc(F)c(F)c1Nc1ccc(I)cc1F)N1CC(O)([C@@H]2CCCCN2)C1` [cobimetinib], `NC(=O)c1cccc2cn(-c3ccc([C@@H]4CCCNC4)cc3)nc12` [niraparib] is lower in “CTG-3D luminescence at 96 h” value: 0.00317 for the first, -0.186 for the second.

Going from `Cc1cc(Nc2ncc(Cl)c(Nc3ccccc3S(=O)(=O)C(C)C)n2)c(OC(C)C)cc1C1CCNCC1` [ceritinib] to `CS(=O)(=O)c1ccc(C(=O)Nc2ccc(Cl)c(-c3ccccn3)c2)c(Cl)c1` [vismodegib], the “CTG-3D luminescence at 96 h” value rises from -0.00344 to 1.19.

For `CCN(c1cc(C#CCN2CCOCC2)cc(C(=O)NCc2c(C)cc(C)[nH]c2=O)c1C)[C@H]1CC[C@H](N(C)CCOC)CC1`, the “CTG-3D luminescence at 96 h” value was 2.14.

same assay, conditions: 100 µM; days in culture: 346

Going from `NC1(C(=O)N[C@@H](CCO)c2ccc(Cl)cc2)CCN(c2nc[nH]c3nccc2-3)CC1` [capivasertib] to `C[C@H](NC(=O)CCC(F)(F)F)C(=O)N[C@@H]1C(=O)N(CCO)c2ncccc2-c2ccccc21` [crenigacestat], the “CTG-3D luminescence at 96 h” value rises from 0.809 to 1.76.

First: CC(C)n1nc(-c2ccc3oc(N)nc3c2)c2c(N)ncnc21 [sapanisertib]
Second: Cc1cc(Nc2ncnc3ccc(NC4=NC(C)(C)CO4)cc23)ccc1Oc1ccn2ncnc2c1 [tucatinib]
The “CTG-3D luminescence at 96 h” value of the first is higher: 0.15 for the first, 0.0455 for the second.

First: O=C(c1ccc(F)c(F)c1Nc1ccc(I)cc1F)N1CC(O)([C@@H]2CCCCN2)C1 [cobimetinib]
Second: NC(=O)c1cccc2cn(-c3ccc([C@@H]4CCCNC4)cc3)nc12 [niraparib]
The “CTG-3D luminescence at 96 h” value of the first is higher: -7.73e-05 for the first, -0.143 for the second.

First: Cc1cc(Nc2ncc(Cl)c(Nc3ccccc3S(=O)(=O)C(C)C)n2)c(OC(C)C)cc1C1CCNCC1 [ceritinib]
Second: CS(=O)(=O)c1ccc(C(=O)Nc2ccc(Cl)c(-c3ccccn3)c2)c(Cl)c1 [vismodegib]
The “CTG-3D luminescence at 96 h” value of the first is lower: -0.00215 for the first, 1.35 for the second.

For `CCN(c1cc(C#CCN2CCOCC2)cc(C(=O)NCc2c(C)cc(C)[nH]c2=O)c1C)[C@H]1CC[C@H](N(C)CCOC)CC1`, the “CTG-3D luminescence at 96 h” value was 1.

same assay, conditions: 100 µM; days in culture: 364

Compared with `NC1(C(=O)N[C@@H](CCO)c2ccc(Cl)cc2)CCN(c2nc[nH]c3nccc2-3)CC1` [capivasertib], `C[C@H](NC(=O)CCC(F)(F)F)C(=O)N[C@@H]1C(=O)N(CCO)c2ncccc2-c2ccccc21` [crenigacestat] is higher in “CTG-3D luminescence at 96 h” value: 0.375 for the first, 1.1 for the second.

Going from `CC(C)n1nc(-c2ccc3oc(N)nc3c2)c2c(N)ncnc21` [sapanisertib] to `Cc1cc(Nc2ncnc3ccc(NC4=NC(C)(C)CO4)cc23)ccc1Oc1ccn2ncnc2c1` [tucatinib], the “CTG-3D luminescence at 96 h” value falls from 0.14 to 0.0245.

Compared with `O=C(c1ccc(F)c(F)c1Nc1ccc(I)cc1F)N1CC(O)([C@@H]2CCCCN2)C1` [cobimetinib], `NC(=O)c1cccc2cn(-c3ccc([C@@H]4CCCNC4)cc3)nc12` [niraparib] is lower in “CTG-3D luminescence at 96 h” value: 0.000378 for the first, -0.0638 for the second.

First: Cc1cc(Nc2ncc(Cl)c(Nc3ccccc3S(=O)(=O)C(C)C)n2)c(OC(C)C)cc1C1CCNCC1 [ceritinib]
Second: CS(=O)(=O)c1ccc(C(=O)Nc2ccc(Cl)c(-c3ccccn3)c2)c(Cl)c1 [vismodegib]
The “CTG-3D luminescence at 96 h” value of the first is lower: -0.00387 for the first, 1.1 for the second.

With `CCN(c1cc(C#CCN2CCOCC2)cc(C(=O)NCc2c(C)cc(C)[nH]c2=O)c1C)[C@H]1CC[C@H](N(C)CCOC)CC1` the “CTG-3D luminescence at 96 h” value was 1.41.

same assay, conditions: 625 fM; days in culture: 240

Going from `NC1(C(=O)N[C@@H](CCO)c2ccc(Cl)cc2)CCN(c2nc[nH]c3nccc2-3)CC1` [capivasertib] to `C[C@H](NC(=O)CCC(F)(F)F)C(=O)N[C@@H]1C(=O)N(CCO)c2ncccc2-c2ccccc21` [crenigacestat], the “CTG-3D luminescence at 96 h” value falls from 1.02 to 0.941.

Compared with `CC(C)n1nc(-c2ccc3oc(N)nc3c2)c2c(N)ncnc21` [sapanisertib], `Cc1cc(Nc2ncnc3ccc(NC4=NC(C)(C)CO4)cc23)ccc1Oc1ccn2ncnc2c1` [tucatinib] is higher in “CTG-3D luminescence at 96 h” value: 1.12 for the first, 1.43 for the second.

First: O=C(c1ccc(F)c(F)c1Nc1ccc(I)cc1F)N1CC(O)([C@@H]2CCCCN2)C1 [cobimetinib]
Second: NC(=O)c1cccc2cn(-c3ccc([C@@H]4CCCNC4)cc3)nc12 [niraparib]
The “CTG-3D luminescence at 96 h” value of the first is higher: 1.41 for the first, 1.32 for the second.

Compared with `Cc1cc(Nc2ncc(Cl)c(Nc3ccccc3S(=O)(=O)C(C)C)n2)c(OC(C)C)cc1C1CCNCC1` [ceritinib], `CS(=O)(=O)c1ccc(C(=O)Nc2ccc(Cl)c(-c3ccccn3)c2)c(Cl)c1` [vismodegib] is higher in “CTG-3D luminescence at 96 h” value: 1.26 for the first, 2.27 for the second.

With `CCN(c1cc(C#CCN2CCOCC2)cc(C(=O)NCc2c(C)cc(C)[nH]c2=O)c1C)[C@H]1CC[C@H](N(C)CCOC)CC1` the “CTG-3D luminescence at 96 h” value was 1.15.
